Laboratory results taken from patent US20050222200A1, “AMIDE DERIVATIVES AS ION CHANNEL LIGANDS AND PHARMACEUTICAL COMPOSITIONS AND METHODS OF USING THE SAME” (Renovis, Inc., priority 2003, published 2005).

biological target: VR1 (Rattus norvegicus, UniProt O35433); assay: Calcium imaging assay: inhibition of capsaicin induced calcium influx in DRG neurons (Fura2, microscope); assay type: cell-based; set-up: endogenous in cells; host or cells: DRG neurons; conditions: capsaicin stimulation; class symbols per legend
Experimental: VR1 protein is a heat-gated cation channel that […] resulting in neuronal membrane depolarization and elevated intracellular calcium levels. Therefore the functional activity of compounds at the VR1 receptor may be determined by measuring changes in intracellular calcium levels in neurons such as the dorsal root ganglion.
DRG neurons were grown on PDL coated 96-well black-walled plates, in the presence of DMEM medium containing 5% Penstrep, 5% Glutamax, 200 μg/ml hygromycin, 5 μg/ml blasticide and 10% heat inactivated FBS. Prior to assay, cells were loaded with 5 μg/ml Fura2 in normal saline solution at 37° C for 40 minutes. Cells were then washed with normal saline to remove dye before commencement of the experiment.
The plated neurons were transferred into a chamber on the stage of a Nikon eclipse TE300 microscope after which neurons were allowed to attain a stable fluorescence for about 10 minutes before beginning the experiment. The assay consists of two stages, a pretreatment phase followed by a treatment phase. First, a solution of the test compound was added from a multivalve perfusion system to the cells for 1 minute (pretreatment). Immediately following, capsaicin (250 nM) was added in the presence of the test compound (treatment) for a specific period between 20 and 60 seconds.
Fura2 was excited at […] to indicate relative calcium ion concentration. Changes in wavelength measurements were made throughout the course of the experiment. The fluorescence ratio was calculated by dividing fluorescence measured at 340 nm by that at 380 nM. Data was collected using Intelligent Imaging’s Slidebook software. All compounds that inhibited capsaicin induced calcium influx greater than 75% were considered positives.
Fluorescence reflecting calcium ion influx is reduced.

VR1, sequence (O35433 whole entry): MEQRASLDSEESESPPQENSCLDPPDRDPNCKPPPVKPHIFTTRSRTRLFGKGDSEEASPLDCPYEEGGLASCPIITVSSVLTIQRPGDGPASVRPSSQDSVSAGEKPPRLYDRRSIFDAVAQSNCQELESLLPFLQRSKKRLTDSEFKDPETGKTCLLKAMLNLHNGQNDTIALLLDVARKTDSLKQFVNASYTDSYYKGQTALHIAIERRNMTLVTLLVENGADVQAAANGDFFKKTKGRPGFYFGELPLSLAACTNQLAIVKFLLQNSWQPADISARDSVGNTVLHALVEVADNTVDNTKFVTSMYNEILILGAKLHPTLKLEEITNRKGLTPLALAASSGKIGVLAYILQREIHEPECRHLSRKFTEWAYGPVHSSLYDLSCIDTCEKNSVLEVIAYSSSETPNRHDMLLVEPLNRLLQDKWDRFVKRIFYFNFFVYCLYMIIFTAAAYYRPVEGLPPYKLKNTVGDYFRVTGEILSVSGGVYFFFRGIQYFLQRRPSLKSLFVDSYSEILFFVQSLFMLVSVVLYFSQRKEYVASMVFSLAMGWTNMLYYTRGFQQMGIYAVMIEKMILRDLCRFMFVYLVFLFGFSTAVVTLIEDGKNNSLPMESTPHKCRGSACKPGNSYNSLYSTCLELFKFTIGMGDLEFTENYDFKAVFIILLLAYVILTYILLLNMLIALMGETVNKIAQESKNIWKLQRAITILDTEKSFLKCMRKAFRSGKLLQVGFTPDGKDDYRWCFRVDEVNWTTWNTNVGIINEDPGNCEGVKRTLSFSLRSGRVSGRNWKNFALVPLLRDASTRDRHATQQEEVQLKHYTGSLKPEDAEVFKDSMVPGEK

Compound	inhibition of calcium ion influx induced by capsaicin stimulation
CCN(CC)c1ccc(NC(=O)c2ccc(C#CC(C)(C)C)nc2)cc1 [Compound 430]	+ (compound exhibited 0-25% inhibition of calcium ion influx induced by capsaicin stimulation)
COc1cccc(NC(=O)c2ccc(/C=C/C(F)(F)F)cc2)c1 [Compound 389]	++++ (compound exhibited 75% or greater inhibition of calcium ion influx induced by capsaicin stimulation)
CC(C)(C)C#Cc1ccc(C(=O)Nc2ccc3c(c2)OCO3)cn1 [Compound 438]	++++ (compound exhibited 75% or greater inhibition of calcium ion influx induced by capsaicin stimulation)
CCC/C=C/c1ccc(C(=O)NCc2ccc(OC)c(OC)c2)cc1 [Compound 238]	+ (compound exhibited 0-25% inhibition of calcium ion influx induced by capsaicin stimulation)
COc1cc(CNC(=O)c2ccc(/C(C)=C/C(C)(C)C)cc2)cc(OC)c1OC [Compound 305]	+ (compound exhibited 0-25% inhibition of calcium ion influx induced by capsaicin stimulation)
CC(C)(C)C#Cc1ccc(C(=O)Nc2cccc3cnccc23)cn1 [Compound 428]	++++ (compound exhibited 75% or greater inhibition of calcium ion influx induced by capsaicin stimulation)
CC(C)(C)C#Cc1ccc(C(=O)Nc2cccc3cnccc23)cc1 [Compound 378]	++++ (compound exhibited 75% or greater inhibition of calcium ion influx induced by capsaicin stimulation)
C/C(=C\C(C)(C)C)c1ccc(C(=O)Nc2ccc(C(F)(F)F)cn2)cc1 [Compound 344]	+ (compound exhibited 0-25% inhibition of calcium ion influx induced by capsaicin stimulation)
CCC/C=C/c1ccc(C(=O)Nc2ccc(Cl)c(C(F)(F)F)c2)cc1 [Compound 242]	++ (compound exhibited 25-50% inhibition of calcium ion influx induced by capsaicin stimulation)
CC(C)(C)C#Cc1ccc(C(=O)Nc2ccc3c(c2)OCCO3)cc1 [Compound 373]	++++ (compound exhibited 75% or greater inhibition of calcium ion influx induced by capsaicin stimulation)
COc1ccc(NC(=O)c2ccc(/C(C)=C/C(C)(C)C)cc2)cc1Cl [Compound 330]	+ (compound exhibited 0-25% inhibition of calcium ion influx induced by capsaicin stimulation)
Cn1ccc2cc(NC(=O)c3ccc(C#CC(C)(C)C)nc3)ccc21 [Compound 437]	++++ (compound exhibited 75% or greater inhibition of calcium ion influx induced by capsaicin stimulation)
C/C(=C\C(C)(C)C)c1ccc(C(=O)Nc2ccc(C(F)(F)F)cc2)cc1 [Compound 331]	+++ (compound exhibited 50-75% inhibition of calcium ion influx induced by capsaicin stimulation)
CCC/C=C/c1ccc(C(=O)Nc2ccc(C(C)(C)C)cc2)cc1 [Compound 246]	+ (compound exhibited 0-25% inhibition of calcium ion influx induced by capsaicin stimulation)
C/C(=C\C(C)(C)C)c1ccc(C(=O)NC(c2ccccc2)c2ccccc2)cc1 [Compound 283]	+ (compound exhibited 0-25% inhibition of calcium ion influx induced by capsaicin stimulation)
CCC/C=C/c1ccc(C(=O)Nc2ccnc(Cl)c2)cc1 [Compound 261]	+ (compound exhibited 0-25% inhibition of calcium ion influx induced by capsaicin stimulation)
CCC/C=C/c1ccc(C(=O)Nc2ccccc2CCO)cc1 [Compound 245]	+ (compound exhibited 0-25% inhibition of calcium ion influx induced by capsaicin stimulation)
COc1cc(NC(=O)c2ccc(C#CC(C)(C)C)cc2)cc(C(F)(F)F)c1 [Compound 372]	++++ (compound exhibited 75% or greater inhibition of calcium ion influx induced by capsaicin stimulation)
Cn1ccc2cc(NC(=O)c3ccc(C#CC(C)(C)C)cc3)ccc21 [Compound 387]	++++ (compound exhibited 75% or greater inhibition of calcium ion influx induced by capsaicin stimulation)
C/C(=C\C(C)(C)C)c1ccc(C(=O)Nc2cccc(C#N)c2)cc1 [Compound 332]	+++ (compound exhibited 50-75% inhibition of calcium ion influx induced by capsaicin stimulation)
CC(C)c1ccc(NC(=O)c2ccc(C#CC(C)(C)C)nc2)cc1 [Compound 420]	+++ (compound exhibited 50-75% inhibition of calcium ion influx induced by capsaicin stimulation)

Compound	inhibition of calcium ion influx induced by capsaicin stimulation
COc1cccc(NC(=O)c2ccc(C#CC(C)(C)C)nc2)c1 [Compound 414]	++++ (compound exhibited 75% or greater inhibition of calcium ion influx induced by capsaicin stimulation)
CC(C)(C)C#Cc1ccc(C(=O)Nc2ccc(OC(F)(F)F)cc2)cn1 [Compound 425]	+ (compound exhibited 0-25% inhibition of calcium ion influx induced by capsaicin stimulation)
COc1ccccc1CNC(=O)c1ccc(/C(C)=C/C(C)(C)C)cc1 [Compound 275]	+ (compound exhibited 0-25% inhibition of calcium ion influx induced by capsaicin stimulation)
CC(C)(C)C#Cc1ccc(C(=O)Nc2ccc(C(C)(C)C)cc2)cn1 [Compound 419]	++++ (compound exhibited 75% or greater inhibition of calcium ion influx induced by capsaicin stimulation)
C/C(=C\C(C)(C)C)c1ccc(C(=O)Nc2ccccc2O)cc1 [Compound 313]	+ (compound exhibited 0-25% inhibition of calcium ion influx induced by capsaicin stimulation)
O=C(Nc1ccc2c(c1)OCCO2)c1ccc(/C=C/C(F)(F)F)cc1 [Compound 397]	+++ (compound exhibited 50-75% inhibition of calcium ion influx induced by capsaicin stimulation)
C/C(=C\C(C)(C)C)c1ccc(C(=O)NCCc2ccccc2Cl)cc1 [Compound 286]	+ (compound exhibited 0-25% inhibition of calcium ion influx induced by capsaicin stimulation)
CC(C)(C)C#Cc1ccc(C(=O)Nc2cccc(S(C)(=O)=O)c2)cn1 [Compound 411]	++++ (compound exhibited 75% or greater inhibition of calcium ion influx induced by capsaicin stimulation)
COc1ccc(NC(=O)c2ccc(C#CC(C)(C)C)cc2)cc1Cl [Compound 366]	++ (compound exhibited 25-50% inhibition of calcium ion influx induced by capsaicin stimulation)
CC(C)(C)C#Cc1ccc(C(=O)Nc2ccc(S(C)(=O)=O)cc2)cn1 [Compound 427]	++ (compound exhibited 25-50% inhibition of calcium ion influx induced by capsaicin stimulation)
CCC/C=C/c1ccc(C(=O)Nc2ccc(Cl)nc2)cc1 [Compound 259]	+ (compound exhibited 0-25% inhibition of calcium ion influx induced by capsaicin stimulation)
C/C(=C\C(C)(C)C)c1ccc(C(=O)NCc2cccs2)cc1 [Compound 316]	++ (compound exhibited 25-50% inhibition of calcium ion influx induced by capsaicin stimulation)
CCC/C=C/c1ccc(C(=O)Nc2ccc(CCCC)cc2)cc1 [Compound 248]	+++ (compound exhibited 50-75% inhibition of calcium ion influx induced by capsaicin stimulation)
CCC/C=C/c1ccc(C(=O)NC2CCN(C)CC2)cc1 [Compound 237]	+ (compound exhibited 0-25% inhibition of calcium ion influx induced by capsaicin stimulation)
CCCCc1ccc(NC(=O)c2ccc(/C(C)=C/C(C)(C)C)cc2)cc1 [Compound 336]	++ (compound exhibited 25-50% inhibition of calcium ion influx induced by capsaicin stimulation)
COc1ccc(NC(=O)c2ccc(C#CC(C)(C)C)nc2)cc1Cl [Compound 416]	++ (compound exhibited 25-50% inhibition of calcium ion influx induced by capsaicin stimulation)
CCC/C=C/c1ccc(C(=O)Nc2cc(OC)cc(C(F)(F)F)c2)cc1 [Compound 249]	+ (compound exhibited 0-25% inhibition of calcium ion influx induced by capsaicin stimulation)
C/C(=C\C(C)(C)C)c1ccc(C(=O)Nc2ccc(C)cc2C)cc1 [Compound 338]	+ (compound exhibited 0-25% inhibition of calcium ion influx induced by capsaicin stimulation)
O=C(Nc1ccc(OC(F)(F)F)cc1)c1ccc(/C=C/C(F)(F)F)cc1 [Compound 399]	++++ (compound exhibited 75% or greater inhibition of calcium ion influx induced by capsaicin stimulation)
CC(C)(C)C#Cc1ccc(C(=O)Nc2ccc(C(F)(F)F)cc2)cn1 [Compound 417]	++++ (compound exhibited 75% or greater inhibition of calcium ion influx induced by capsaicin stimulation)
